Measured values published in patent US20240182945A1, “PRODUCTS FOR REGULATION OF EUKARYOTIC AND MICROBIAL CELLS GROWTH” (priority 2021, published 2024).
Values after ≈ are worked out from the molar mass of the structure shown. Where two headings read alike, the source gives them in different places.

Tests used:
Assay type in all cases: cell-based
[1] = test system: S. aureus; test: Sensitivity of PP to antibiotics, standard serial microbroth-dilution method (Example 24); conditions: for MIC: Staphylococcus aureus
[2] = test system: PP+MM within the biosample; test: Presence of bacterial growth in the wells supplemented with amoxicillin; design: key: “+” - presence of bacterial growth, antibiotic is ineffective; “−”- absence of bacterial growth, antibiotic is effective
Procedure: Next, biosamples were plated to the wells of 48 well plate filled with Columbia+Pept Meat Agar supplemented with Amoxicillin. We modulated a QID, BID and TID administration of amoxicillin on PP+MM within the biosample. The following assumptions were made.
Next we evaluated Presence of bacterial growth in the wells supplemented with amoxicillin.

[3] = test system: C. albicans, non-albicans Candida spp. Aspergillus spp. in oral swabs from patients with oral candidiasis; test: Signs of fungal growth on 12 well plate test system supplemented with antifungal antibiotics; conditions: naked eye examination, samples resistant to the antibiotic
Procedure: Oral swabs (n=6) from patients with confirmed oral candidiasis caused by C. albicans, non-albicans Candida spp. Aspergillus spp., were dissolved with PBS and 0.1 uL were plated on 12 well plate test system filled with Mixed Medium 1 (see above), Mixed Medium 2 (Sabouraud agar+Potato Dextrose Agar+vitamins B12+B7) (MM2), Sabouraud agar (SA), Potato Dextrose Agar (PDA), Sabouraud's Heart Infusion (SABHI) agar. 11 wells were filled with media supplemented with antibiotics (taken at mean concentration of each antibiotic achieved in lungs at different timpoints post drug administration)—Nystatin, Amphotericin B, Clotrimazole, Fluconazole, Isavuconazole, Terbinafin, Posaconazole, Voriconazole, Anidulafungin, Caspofungin, Micafungin. One well was antibiotic free.
Plates was incubated at 30 C and the analysis of the presence/absence of microbial growth was monitored every 15 minutes from […] to 5 h, then hourly from 5 h to 8 h and then at 18 and 24 h post plating with a naked eye.
Three methods (algorithms) how to analyze fungal growth were used.
Method (Algorithm) #1. Lab technician, analyzed the appearance of fungal growth by comparing the signs of fungal growth in each well supplemented with antibiotic(s) at certain timepoint, with the signs of funal growth in the same well at previous time point(s).
Method (Algorithm)#2. Lab technician analyzed the appearance of fungal growth by comparing the signs of fungal growth in each well supplemented with antibiotic(s) with fungal growth in antibiotic-free control
Method (Algorithm) #3. Lab technician analyzed the absence of fungal growth in the wells in fixed time period of 3.5 h; 5 h and 24 h.

[4] = test system: bacteria of endotracheal aspirate, sputum, BAL, wound swab from patients with ventilator associated pneumonia; test: Signs of bacterial growth on multi-well agar test system supplemented with antibiotics (naked eye or microscopy)
Procedure: Endotracheal aspirate (n=3), sputum (n=3), BAL (n=2), wound swab (n=3) from patients with ventilator associated pneumonia were resuspended in PBS and 0.15 μL were plated on 24 well plate test system filled with Mixed medium (Columbia agar +Pepted Meat agar) (MM), Luria Broth (LB) agar, Pepted Meat agar (PMA), Columbia agar (CA), or Schaedler agar (SA).
Two wells were antibiotic free.
Biosamples were plated to the medium with a sterile swab with a slight pressure to the agar and making circular movements. Plates was incubated at 37 C and the analysis of the of microbial growth was monitored every 15 minutes from […] to 5 h, then hourly from 5 h to 8 h and then at 18 and 24 h post plating with a naked eye or with an AmScope microscope on 20× magnification with 12 mp camera.
Three methods (algorithms) how to analyze bacterial growth were used.
Method (Algorithm) #1. Lab technician, analyzed the appearance of bacterial growth by comparing the signs of bacterial growth in each well supplemented with antibiotic(s) at certain timepoint, with the signs of bacterial growth in the same well at previous time point(s).
Method (Algorithm)#2. Lab technician analyzed the appearance of bacterial growth by comparing the signs of bacterial growth in each well supplemented with antibiotic(s) with bacterial growth in antibiotic-free control
Method (Algorithm) #3. Lab technician analyzed the absence of bacterial growth in the wells in fixed time period of 3.0 h, 3.5 h; 4 h and 24 h.

[5] = Method (Algorithm) #1, MM1 medium
[6] = Method (Algorithm) #1, MM2 medium
[7] = Method (Algorithm) #1, PDA medium
[8] = Method (Algorithm) #1, SA (Sabouraud agar)
[9] = Method (Algorithm) #1, SABHI medium
[10] = Method (Algorithm) #2, MM1 medium
[11] = Method (Algorithm) #2, MM2 medium
[12] = Method (Algorithm) #2, PDA medium
[13] = Method (Algorithm) #2, SA (Sabouraud agar)
[14] = Method (Algorithm) #2, SABHI medium

CC1(C)S[C@@H]2[C@H](NC(=O)[C@H](N)c3ccc(O)cc3)C(=O)N2[C@H]1C(=O)O [Amoxicillin]
Sensitivity (CLSI interpretation) ([1]; Biosample 1, S. aureus): S | Sensitivity (CLSI interpretation) ([1]; Biosample 2, S. aureus): I | Sensitivity (CLSI interpretation) ([1]; Biosample 3, S. aureus): S | MIC ([1]; Biosample 1, S. aureus): 0.25 µg/mL (≈ 0.684 µM) | MIC ([1]; Biosample 2, S. aureus, read-out: MIC): 4 µg/mL (≈ 10.9 µM) | MIC ([1]; Biosample 3, S. aureus, read-out: MIC): 2 µg/mL (≈ 5.47 µM) | Presence of bacterial growth in the wells ([2]; Biosample 1 (PP S. aureus), C0-6 h): − | Presence of bacterial growth in the wells ([2]; Biosample 1 (PP S. aureus), C0-12 h): − | Presence of bacterial growth in the wells ([2]; Biosample 1 (PP S. aureus), C0-24 h): − | Presence of bacterial growth in the wells ([2]; Biosample 2 (PP S. aureus), C0-6 h): − | Presence of bacterial growth in the wells ([2]; Biosample 2 (PP S. aureus), C0-12 h): + | Presence of bacterial growth in the wells ([2]; Biosample 2 (PP S. aureus), C0-24 h): + | Presence of bacterial growth in the wells ([2]; Biosample 3 (PP S. aureus), C0-6 h): − | Presence of bacterial growth in the wells ([2]; Biosample 3 (PP S. aureus), C0-12 h): − | Presence of bacterial growth in the wells ([2]; Biosample 3 (PP S. aureus), C0-24 h): +

CN(C/C=C/C#CC(C)(C)C)Cc1cccc2ccccc12 [Terbinafin]
Mean hour at which fungal growth became visible on the wells supplemented with a certain antibiotic [3, 5]: 4.5 h | Mean hour at which fungal growth became visible on the wells supplemented with a certain antibiotic [3, 6]: 5 h | Mean hour at which fungal growth became visible on the wells supplemented with a certain antibiotic [3, 7]: 5 h | Mean hour at which fungal growth became visible on the wells supplemented with a certain antibiotic [3, 8]: 5 h | Mean hour at which fungal growth became visible on the wells supplemented with a certain antibiotic [3, 9]: 5 h | Mean hour at which fungal growth became visible on the wells supplemented with a certain antibiotic [3, 10]: 4.5 h | Mean hour at which fungal growth became visible on the wells supplemented with a certain antibiotic [3, 11]: 5.5 h | Mean hour at which fungal growth became visible on the wells supplemented with a certain antibiotic [3, 12]: 8 h | Mean hour at which fungal growth became visible on the wells supplemented with a certain antibiotic [3, 13]: 6.5 h | Mean hour at which fungal growth became visible on the wells supplemented with a certain antibiotic [3, 14]: 6.5 h

C[C@@H](c1ncncc1F)[C@](O)(Cn1cncn1)c1ccc(F)cc1F [Voriconazole]
Mean hour at which fungal growth became visible on the wells supplemented with a certain antibiotic [3, 5]: 4 h | Mean hour at which fungal growth became visible on the wells supplemented with a certain antibiotic [3, 6]: 4.5 h | Mean hour at which fungal growth became visible on the wells supplemented with a certain antibiotic [3, 7]: 5.5 h | Mean hour at which fungal growth became visible on the wells supplemented with a certain antibiotic [3, 8]: 4.5 h | Mean hour at which fungal growth became visible on the wells supplemented with a certain antibiotic [3, 9]: 5.5 h | Mean hour at which fungal growth became visible on the wells supplemented with a certain antibiotic [3, 10]: 4.5 h | Mean hour at which fungal growth became visible on the wells supplemented with a certain antibiotic [3, 11]: 4.5 h | Mean hour at which fungal growth became visible on the wells supplemented with a certain antibiotic [3, 12]: 6.5 h | Mean hour at which fungal growth became visible on the wells supplemented with a certain antibiotic [3, 13]: 8 h | Mean hour at which fungal growth became visible on the wells supplemented with a certain antibiotic [3, 14]: 7 h

Piperacillin-tazobactam
Mean hour at which bacterial growth became visible on the wells supplemented with a certain antibiotic ([4]; microscopy examination, Method (Algorithm) #1, CA medium): 3.5 h | Mean hour at which bacterial growth became visible on the wells supplemented with a certain antibiotic ([4]; microscopy examination, Method (Algorithm) #1, LB medium): 4 h | Mean hour at which bacterial growth became visible on the wells supplemented with a certain antibiotic ([4]; microscopy examination, Method (Algorithm) #1, MM medium): 3.5 h | Mean hour at which bacterial growth became visible on the wells supplemented with a certain antibiotic ([4]; microscopy examination, Method (Algorithm) #1, PMA medium): 3.5 h | Mean hour at which bacterial growth became visible on the wells supplemented with a certain antibiotic ([4]; microscopy examination, Method (Algorithm) #1, SA medium): 3.5 h | Mean hour at which bacterial growth became visible on the wells supplemented with a certain antibiotic ([4]; microscopy examination, Method (Algorithm) #2, CA medium): 3.5 h | Mean hour at which bacterial growth became visible on the wells supplemented with a certain antibiotic ([4]; microscopy examination, Method (Algorithm) #2, LB medium): 4 h | Mean hour at which bacterial growth became visible on the wells supplemented with a certain antibiotic ([4]; microscopy examination, Method (Algorithm) #2, MM medium): 4 h | Mean hour at which bacterial growth became visible on the wells supplemented with a certain antibiotic ([4]; microscopy examination, Method (Algorithm) #2, PMA medium): 4 h | Mean hour at which bacterial growth became visible on the wells supplemented with a certain antibiotic ([4]; microscopy examination, Method (Algorithm) #2, SA medium): 3.5 h | Mean hour at which bacterial growth became visible on the wells supplemented with a certain antibiotic ([4]; naked eye examination, Method (Algorithm) #1, CA medium, samples resistant to the antibiotic): 3.5 h | Mean hour at which bacterial growth became visible on the wells supplemented with a certain antibiotic ([4]; naked eye examination, Method (Algorithm) #1, LB medium, samples resistant to the antibiotic): 4 h | Mean hour at which bacterial growth became visible on the wells supplemented with a certain antibiotic ([4]; naked eye examination, Method (Algorithm) #1, MM medium, samples resistant to the antibiotic): 3.5 h | Mean hour at which bacterial growth became visible on the wells supplemented with a certain antibiotic ([4]; naked eye examination, Method (Algorithm) #1, PMA medium, samples resistant to the antibiotic): 3.5 h | Mean hour at which bacterial growth became visible on the wells supplemented with a certain antibiotic ([4]; naked eye examination, Method (Algorithm) #1, SA medium, samples resistant to the antibiotic): 4 h | Mean hour at which bacterial growth became visible on the wells supplemented with a certain antibiotic ([4]; naked eye examination, Method (Algorithm) #2, CA medium, samples resistant to the antibiotic): 5.5 h | Mean hour at which bacterial growth became visible on the wells supplemented with a certain antibiotic ([4]; naked eye examination, Method (Algorithm) #2, LB medium, samples resistant to the antibiotic): 5 h | Mean hour at which bacterial growth became visible on the wells supplemented with a certain antibiotic ([4]; naked eye examination, Method (Algorithm) #2, MM medium, samples resistant to the antibiotic): 4 h | Mean hour at which bacterial growth became visible on the wells supplemented with a certain antibiotic ([4]; naked eye examination, Method (Algorithm) #2, PMA medium, samples resistant to the antibiotic): 4 h | Mean hour at which bacterial growth became visible on the wells supplemented with a certain antibiotic ([4]; naked eye examination, Method (Algorithm) #2, SA medium, samples resistant to the antibiotic): 5.5 h
